The values below come from PubChem BioAssay (NCI).

Structures are written as SMILES.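 Compound exposure: 48 hours, 5 concentrations, 96-well plates. The concentration for 50% growth inhibition is given as GI50. TGI is the concentration that stops growth completely.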 Where only a bound is given, the exact number is not on record here.

Among the test systems are UACC-62 melanoma; KM20L2 colon; NCI-H23 lung; 786-0 renal; RXF 393 renal; HOP-62 NSCLC; HL-60(TB) leukemia; CCRF-CEM leukemia; NCI/ADR-RES ovarian.
Assay in all cases: DTP human tumour cell line panel, 48 h

For orientation: GI50 means the concentration that inhibits growth by half. Usually TGI stands for the concentration giving total growth inhibition. Higher therefore signals less potent growth arrest. Regarding `CC(=O)[CH-]C(C)=O.CC(=O)[CH-]C(C)=O.CC(=O)[CH-]C(C)=O.[Ga+3]`, the GI50 in the assay on UACC-62 melanoma, in the assay with KM20L2 colon, with NCI-H23 lung, in the assay with 786-0 renal and in the assay on RXF 393 renal was over 100 µM throughout. The TGI with UACC-62 melanoma, in the assay with KM20L2 colon, with NCI-H23 lung, with 786-0 renal and in the assay with RXF 393 renal was over 100 µM each time.

Turning to `O=[N+]([O-])/C=C/c1ccc(Cl)cc1Cl`, the TGI with UACC-62 melanoma amounted to 31.3 µM; in the assay on KM20L2 colon, 42.1 µM; with NCI-H23 lung, 42.9 µM; in the assay on 786-0 renal it was 42.2 µM; in the assay on HOP-62 NSCLC it was 28.6 µM; with HL-60(TB) leukemia, 25.3 µM. The molecule also returned a TGI in the assay on CCRF-CEM leukemia of 20.8 µM.

Take `CC(=O)CC(=O)CCC(=O)Nc1cccc(C(F)(F)F)c1`: the TGI in the assay with UACC-62 melanoma, in the assay with KM20L2 colon, with NCI-H23 lung, with 786-0 renal, with HOP-62 NSCLC and in the assay on HL-60(TB) leukemia was over 100 µM in each case. This molecule came in with a TGI in the assay with CCRF-CEM leukemia of over 100 µM.

Regarding `CC(=O)OCC(CC[CH2][Sn]([Cl])([Cl])[c]1ccccc1)OC(C)=O` (stereo not given), the GI50 with UACC-62 melanoma is 12.6 µM; with KM20L2 colon, 24.8 µM; with NCI-H23 lung, 19.5 µM; in the assay on 786-0 renal, 19.1 µM; with HOP-62 NSCLC, 23.9 µM; in the assay on RXF 393 renal it was 18.5 µM. Moreover, the GI50 in the assay on HL-60(TB) leukemia is 16.8 µM; with CCRF-CEM leukemia, 21.3 µM. The TGI was found to be 25.6 µM with UACC-62 melanoma; 52 µM in the assay with KM20L2 colon; 39.4 µM in the assay on NCI-H23 lung; 38 µM in the assay on 786-0 renal; 46.8 µM in the assay with HOP-62 NSCLC; 34.2 µM with RXF 393 renal. Further, the TGI is 42.6 µM with HL-60(TB) leukemia and 68.6 µM with CCRF-CEM leukemia.

Regarding `C[P+]1(c2ccccc2)CCCCC1`, the TGI in the assay with UACC-62 melanoma, in the assay with KM20L2 colon, in the assay with NCI-H23 lung, with 786-0 renal, in the assay with HOP-62 NSCLC and in the assay with RXF 393 renal was over 100 µM each time. Also, the TGI in the assay on CCRF-CEM leukemia was over 100 µM.

In the case of `C=C1C=CC2(Br)OC3CC(C)(Cl)C(Br)CC13C2(C)C` (stereo not given), the TGI in the assay on UACC-62 melanoma is 34.3 µM; with KM20L2 colon it was 49.7 µM; in the assay on NCI-H23 lung, 39.2 µM; in the assay with 786-0 renal, over 100 µM; in the assay on HOP-62 NSCLC, 48 µM; in the assay with HL-60(TB) leukemia, 33.9 µM. This molecule also registered a TGI in the assay on CCRF-CEM leukemia of 47.5 µM.

For `O=C(c1c(O)cc(O)cc1O)C1Cc2ccccc21` (stereo not given), the TGI with UACC-62 melanoma, in the assay on KM20L2 colon, in the assay on 786-0 renal, in the assay with HOP-62 NSCLC, with RXF 393 renal and with HL-60(TB) leukemia was over 100 µM throughout. In the assay with CCRF-CEM leukemia, this molecule came in with a TGI of over 100 µM.

For the molecule `CCOC(=O)C(CCCNC(=O)OC(C)(C)C)N(Cc1ccc(OC)cc1OC)C(=O)CC(=O)CP(=O)(OCC)OCC` (stereo not given), the TGI in the assay on UACC-62 melanoma, with KM20L2 colon, in the assay with NCI-H23 lung, in the assay with 786-0 renal, in the assay with HOP-62 NSCLC and in the assay with RXF 393 renal was over 100 µM in each case. Also, the TGI with HL-60(TB) leukemia and in the assay with CCRF-CEM leukemia was over 100 µM each time.

As to `c1ccc(CN2COc3c(ccc4c5c(ccc34)CN(Cc3ccccc3)CO5)C2)cc1`, the TGI in the assay on UACC-62 melanoma, with KM20L2 colon, in the assay with NCI-H23 lung, with 786-0 renal, in the assay on HOP-62 NSCLC and in the assay with NCI/ADR-RES ovarian was over 100 µM in each case. Also, the TGI with RXF 393 renal, in the assay on HL-60(TB) leukemia and with CCRF-CEM leukemia was over 100 µM in each case.

On to `Cc1ccc(C2=Nc3ccccc3SC(c3cccc4c3OCO4)C2)cc1` (stereo not given), for which the TGI with UACC-62 melanoma was 41.9 µM; in the assay on KM20L2 colon it was 41.2 µM; with NCI-H23 lung, 39.8 µM; in the assay with 786-0 renal it was 39.9 µM; in the assay with HOP-62 NSCLC it was over 100 µM; with HL-60(TB) leukemia, 39 µM. Moreover, the TGI in the assay with CCRF-CEM leukemia was determined as 37.9 µM.

As for `O=C(Cc1ccccc1)C(c1ccccc1)S(=O)(=O)c1ccccc1` (stereo not given), the TGI in the assay on UACC-62 melanoma, in the assay on KM20L2 colon, with NCI-H23 lung, with 786-0 renal, with HOP-62 NSCLC and with RXF 393 renal was over 100 µM in each case. Further, the TGI in the assay with HL-60(TB) leukemia and in the assay on CCRF-CEM leukemia was over 100 µM each time.

For the molecule `CC(C)OC(=O)C1Cc2c([nH]c3ccccc23)C(c2ccccc2)N1` (stereo not given), the TGI in the assay with UACC-62 melanoma is over 100 µM; in the assay with KM20L2 colon, over 100 µM; in the assay on NCI-H23 lung, over 100 µM; with 786-0 renal, over 100 µM; with HOP-62 NSCLC, 69.9 µM; in the assay on RXF 393 renal, 98.3 µM. Besides, the TGI with HL-60(TB) leukemia and in the assay on CCRF-CEM leukemia was over 100 µM each time.

As for `C/C(=N\NC(=O)C(N)=O)c1c(O)cc(C)oc1=O`, the TGI with UACC-62 melanoma, in the assay with KM20L2 colon, in the assay with NCI-H23 lung, with 786-0 renal, in the assay with HOP-62 NSCLC and in the assay on HL-60(TB) leukemia was over 100 µM throughout. In addition, the TGI in the assay with CCRF-CEM leukemia is over 100 µM.

Turning to `COc1ccc2nc3cc(Cl)ccc3c(N3CCN(c4ccnc(N5CCN(C)CC5)n4)CC3)c2c1`, the GI50 with UACC-62 melanoma is 1.86 µM; in the assay on NCI-H23 lung it was 2.02 µM; in the assay with 786-0 renal, 1.61 µM; in the assay with HOP-62 NSCLC, 3.51 µM; with NCI/ADR-RES ovarian, 3.66 µM; with RXF 393 renal it was 1.36 µM. The GI50 with HL-60(TB) leukemia is 2.14 µM; in the assay on CCRF-CEM leukemia it was 1.61 µM. Also, the TGI amounted to 3.69 µM with UACC-62 melanoma; 4.17 µM in the assay with NCI-H23 lung; 3 µM in the assay with 786-0 renal; 12.4 µM in the assay on HOP-62 NSCLC; 12.4 µM in the assay with NCI/ADR-RES ovarian; 2.78 µM in the assay with RXF 393 renal. Further, the TGI with HL-60(TB) leukemia worked out at 5.03 µM; in the assay with CCRF-CEM leukemia it was 4.15 µM.

For the molecule `Cn1c(C(=O)c2cccc3ccccc23)nc2ccccc21`, the GI50 with UACC-62 melanoma, in the assay with NCI-H23 lung, in the assay on 786-0 renal, in the assay with HOP-62 NSCLC, in the assay with NCI/ADR-RES ovarian and with RXF 393 renal was over 100 µM in each case. Besides, the GI50 in the assay with HL-60(TB) leukemia and with CCRF-CEM leukemia was over 100 µM throughout. For the same molecule, the TGI with UACC-62 melanoma, with NCI-H23 lung, with 786-0 renal, with HOP-62 NSCLC, in the assay on NCI/ADR-RES ovarian and with RXF 393 renal was over 100 µM each time. The TGI in the assay with HL-60(TB) leukemia and with CCRF-CEM leukemia was over 100 µM each time.
